Reference: patent publication US20050186587A1, “Method for screening a substance which can suppress degradation of a nuclear receptor or a substance which can promote degradation of a nuclear receptor” (Interite, Inc., priority 2004, published 2005)
Where a SMILES comes first, the peptide text is derived from it. The star is where a group is joined. Cbz = O=C(OCc1ccccc1)*

Tests used:
[1] = molecular target: T1, estrogen receptor alpha (ERα) (Homo sapiens, UniProt P03372); test: Amount of ERα in MCF-7 cell nucleus extracts by Western blotting (Test Example 1); format: cell-based; conditions: MCF-7 cells, MG132 at 1 μM, both with and without estrogen, FIG. 1(b) lanes 3 and 4
T1 construct: ERα was first purified from MCF-7 cell nucleus extract by immune precipitation; endogenous in cells; host or cells: MCF-7 cells
Method: (§1) HeLa cells, human breast cancer-derived MCF-7 cells and human fetal kidney-derived 293 cells were cultured at 37° C. in Dulbecco's modified Eagle's medium (DMEM) containing 10% FCS in humidified air containing 5% (partial pressure) carbon dioxide gas.
10 μg of each extract of MCF-7 cells and 293 cells was isolated by 8% or 10% SDS-PAGE, and transferred to a nitrocellulose membrane. This membrane was incubated for 1 hour in a blocking solution of 1% BSA (bovine serum albumin) and 5% skim milk added to 25 mM tris-buffered saline containing 0.02% Tween20 (T-TBS), and then reacted with the respective antibodies for 1 hour at 25° C. After being washed 3 times for 10 minutes each in 25° C. T-TBS, the membranes were incubated for 1 minute at 25° C. with peroxidase-bound goat anti-mouse antibodies. Protein that reacted with the antibodies was made visible with an Amersham Pharmacia high-sensitivity chemical luminescence detection system (ECL).

ERαΔAD = format: cell-based, human; conditions: 293 cells, 1 μM MG132, FIG. 2 lanes 2 and 4
Method: as §1
(§2) The target DNA was diluted with 100 μL of OptiMEM medium (Life Technologies, Inc.). The amount of DNA was adjusted to a total of 1 μg by addition of blank vector. 10 μL of lipofectamine reagent (Life Technologies, Inc.) was diluted in the same way with 100 μL of OptiMEM medium. After being left at room temperature for 5 minutes, the two liquids were mixed and left for an additional 20 minutes to form a complex. This mixture was then dripped directly onto cells seeded on 12-well plates and cultured to 40-50% confluence in DMEM containing 0.2% FCS treated with activated charcoal, and transfection was performed. 6 hours after transfection normal medium was substituted, and after 24 hours' further culture the ligand was added.
10 μg of each extract of MCF-7 cells and 293 cells was isolated by 8% or 10% SDS-PAGE, and transferred to a nitrocellulose membrane. […] Protein that reacted with the antibodies was made visible with an Amersham Pharmacia high-sensitivity chemical luminescence detection system (ECL). […]

Flag-ERαΔAD = molecular target: T2, Flag-ERαΔAD (Homo sapiens, UniProt P03372); test: Ubiquitination of Flag-ERαΔAD expressed in 293 cells, immune precipitation and anti-ubiquitin Western blotting; format: cell-based; conditions: no estrogen added but MG132 added, FIG. 3 lane 3
T2 construct: ERαΔAD (1-534) consisting of amino acids 1 through 534; expressed in transfected cells; host or cells: 293 cells
T2 sequence (P03372 1-534): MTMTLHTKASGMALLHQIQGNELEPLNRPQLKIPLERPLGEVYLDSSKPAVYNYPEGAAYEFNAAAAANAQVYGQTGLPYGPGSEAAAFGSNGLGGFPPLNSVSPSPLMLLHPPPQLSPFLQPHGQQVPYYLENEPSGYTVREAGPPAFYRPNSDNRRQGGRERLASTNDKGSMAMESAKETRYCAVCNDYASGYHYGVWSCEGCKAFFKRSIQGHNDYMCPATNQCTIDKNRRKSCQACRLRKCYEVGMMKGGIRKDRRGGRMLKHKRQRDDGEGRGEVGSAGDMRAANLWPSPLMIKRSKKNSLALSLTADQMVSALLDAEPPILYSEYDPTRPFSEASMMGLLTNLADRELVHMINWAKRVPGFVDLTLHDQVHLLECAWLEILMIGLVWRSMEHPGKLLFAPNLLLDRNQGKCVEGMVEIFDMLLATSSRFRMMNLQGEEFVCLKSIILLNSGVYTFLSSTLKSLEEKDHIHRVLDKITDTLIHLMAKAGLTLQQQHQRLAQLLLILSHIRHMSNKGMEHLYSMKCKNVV
Method: About 50 μg of MCF-7 cell nucleus extract or 293 cell nucleus extract was incubated for 1 hour at 4° C. in 25 mM tris-buffered saline containing 0.1% Tween20 (T-TBS) together with 50 μg of either glutathione sepharose beads or anti-Flag tag antibody beads (Santa Cruz Biotechnology). Beads to which protein had bound were washed 4 times with 25 mM tris-buffered saline containing 0.1% Tween20 and centrifuged for 1 minute at 5000 rpm, and the beads were collected. Protein was eluted from the beads by boiling in loading buffer.
(§3) Western blotting using the respective antibodies was accomplished by well-known methods (Yanagisawa, J. et al, Molecular Cell (2002) March, 9(3):553-562) with some alterations. 10 μg of each extract of MCF-7 cells and 293 cells was isolated by 8% or 10% SDS-PAGE, and transferred to a nitrocellulose membrane. This membrane was incubated for 1 hour in a blocking solution of 1% BSA (bovine serum albumin) and 5% skim milk added to 25 mM tris-buffered saline containing 0.02% Tween20 (T-TBS), and then reacted with the respective antibodies for 1 hour at 25° C. After being washed 3 times for 10 minutes each in 25° C. T-TBS, the membranes were incubated for 1 minute at 25° C. with peroxidase-bound goat anti-mouse antibodies. Protein that reacted with the antibodies was made visible with an Amersham Pharmacia high-sensitivity chemical luminescence detection system (ECL).

[2] = tested on: ERα, ERα(V364E), ERα(C447A), ERαΔAD or ERα(L540Q); test: Amount of normal and mutant ERα protein in 293 cells with proteasome inhibitor (Test Example 8, FIG. 11); format: cell-based, human; conditions: MG132 added to the cells, FIG. 11 lanes 1 through 5
Method: CHIP or CHIPΔUbox (a mutant having the ubiquitin ligase activity removed) were made to be expressed in cells already co-expressing normal ERα and a dominant negative mutant of ERα, and the transcriptional activation ability of ERα was measured. […] The amount of ERα in the cell nucleus extract was measured at the same time by Western blotting. ERα(V364E), ERα(C447A), ERαΔAD and ERα(L540Q) were used as the dominant negative mutants of ERα. […] ERαΔAD is a helix 12 deletion mutant, while ERα(L540Q) is a helix 12 single-residue substitution mutant, and the transcriptional activity of both is low because they can no longer bind to transcriptional activation factors. ERαΔAD and ERα(L540Q) are not temperature sensitive.
The amount of protein was also slightly lower in the case of ERαΔAD (See FIG. 11 lane 4).

ERα and CHIP = molecular target: T3, ERα and CHIP (Homo sapiens, UniProt P03372); conditions: 293 cells, 24 hours, 10 nM estrogen, 1 μM tamoxifen (OHT) or 100 nM fulvestrant (ICI), FIG. 6
T3 sequence (P03372 1-595): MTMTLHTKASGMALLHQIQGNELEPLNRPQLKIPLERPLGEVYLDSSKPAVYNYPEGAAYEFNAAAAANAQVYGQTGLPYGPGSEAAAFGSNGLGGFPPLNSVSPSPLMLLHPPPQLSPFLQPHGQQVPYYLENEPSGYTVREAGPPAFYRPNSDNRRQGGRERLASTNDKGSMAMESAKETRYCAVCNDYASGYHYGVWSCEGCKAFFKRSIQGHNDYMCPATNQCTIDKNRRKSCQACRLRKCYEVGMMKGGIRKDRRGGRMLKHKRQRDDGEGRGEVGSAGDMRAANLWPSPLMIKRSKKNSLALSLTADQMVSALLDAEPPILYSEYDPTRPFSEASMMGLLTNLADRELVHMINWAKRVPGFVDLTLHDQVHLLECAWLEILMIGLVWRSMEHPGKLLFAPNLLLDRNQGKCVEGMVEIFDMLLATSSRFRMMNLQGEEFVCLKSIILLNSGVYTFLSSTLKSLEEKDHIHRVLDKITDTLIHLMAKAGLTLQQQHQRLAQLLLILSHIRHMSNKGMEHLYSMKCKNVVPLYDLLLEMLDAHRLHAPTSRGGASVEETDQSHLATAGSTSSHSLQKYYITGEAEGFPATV
Method: as §2
GST pull-down was performed by well-known methods (Yanagisawa, J. et al, Molecular Cell (2002) March, 9(3):553-562). […]
Western blotting using the respective antibodies was accomplished by well-known methods (Yanagisawa, J. et al, Molecular Cell (2002) March, 9(3):553-562) with some alterations. […] Protein that reacted with the antibodies was made visible with an Amersham Pharmacia high-sensitivity chemical luminescence detection system (ECL). […]

ERα = molecular target: T4, ERα (Homo sapiens, UniProt P03372); conditions: 293 cells, 24 hours, 1 μM OHT or 100 nM ICI (or estrogen), FIG. 7, FIGS. 8(a) and (b)
T4 sequence (P03372 1-595): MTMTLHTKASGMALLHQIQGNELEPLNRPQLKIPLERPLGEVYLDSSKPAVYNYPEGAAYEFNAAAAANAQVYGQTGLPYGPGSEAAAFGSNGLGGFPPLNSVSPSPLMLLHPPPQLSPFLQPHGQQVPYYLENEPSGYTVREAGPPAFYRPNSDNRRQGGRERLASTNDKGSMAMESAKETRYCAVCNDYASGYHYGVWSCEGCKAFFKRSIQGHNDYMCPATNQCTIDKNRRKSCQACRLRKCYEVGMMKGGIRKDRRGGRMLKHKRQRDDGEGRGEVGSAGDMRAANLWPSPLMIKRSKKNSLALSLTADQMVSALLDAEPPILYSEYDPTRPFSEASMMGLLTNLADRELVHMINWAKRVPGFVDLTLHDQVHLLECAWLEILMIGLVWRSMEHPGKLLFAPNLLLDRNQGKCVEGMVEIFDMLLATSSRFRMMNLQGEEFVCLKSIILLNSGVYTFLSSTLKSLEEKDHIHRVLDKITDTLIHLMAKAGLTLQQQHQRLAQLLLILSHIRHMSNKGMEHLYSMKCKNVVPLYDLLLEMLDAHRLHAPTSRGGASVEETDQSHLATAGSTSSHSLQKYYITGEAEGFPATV
Method: as §3

[3] = molecular target: T5, estrogen receptor alpha (ERα), not bound to a ligand, P03372
T5 chain: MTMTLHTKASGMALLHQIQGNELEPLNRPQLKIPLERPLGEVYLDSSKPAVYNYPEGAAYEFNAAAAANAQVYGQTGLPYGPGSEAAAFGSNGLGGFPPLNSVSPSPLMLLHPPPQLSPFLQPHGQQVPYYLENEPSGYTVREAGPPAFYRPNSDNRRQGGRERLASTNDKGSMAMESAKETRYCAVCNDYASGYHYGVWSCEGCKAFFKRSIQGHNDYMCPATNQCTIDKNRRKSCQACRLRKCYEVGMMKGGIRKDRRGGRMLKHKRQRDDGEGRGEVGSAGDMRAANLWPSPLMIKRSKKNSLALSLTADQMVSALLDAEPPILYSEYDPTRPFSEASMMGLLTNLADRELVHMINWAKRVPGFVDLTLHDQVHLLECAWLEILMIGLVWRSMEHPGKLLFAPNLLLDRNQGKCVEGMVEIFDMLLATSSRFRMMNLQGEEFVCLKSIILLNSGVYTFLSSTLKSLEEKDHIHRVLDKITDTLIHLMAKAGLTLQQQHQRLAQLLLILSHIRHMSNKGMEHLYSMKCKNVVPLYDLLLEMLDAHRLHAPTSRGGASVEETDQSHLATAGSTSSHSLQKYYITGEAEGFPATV

How did the “amount of ERα” value [1] turn out when `CC(C)C[C@@H](C=O)NC(=O)[C@H](CC(C)C)NC(=O)[C@H](CC(C)C)NC(=O)OCc1ccccc1` [MG132] (Cbz-Leu-Leu-Leu-aldehyde) was run?
Its value is “increased dramatically”.

And the “degradation of ERαΔAD” value (ERαΔAD)?
Its value is “inhibited”.

And the “ubiquitinated ERαΔAD (Flag-ERαΔAD-Ub)” value (Flag-ERαΔAD)?
Its value is “strong accumulation of a polyubiquitin protein”.

What about the “amount of expression of mutant ERα versus normal ERα” value [2] of the same molecule?
The value was “no difference between the various mutants and normal ERα”.

How did the “co-precipitation of ERα with CHIP” value (ERα and CHIP) turn out when `C[C@]12CC[C@@H]3c4ccc(O)cc4C[C@@H](CCCCCCCCC[S+]([O-])CCCC(F)(F)C(F)(F)F)[C@H]3[C@@H]1CC[C@@H]2O` (some centres unmarked) [fulvestrant] was run?
The value was “co-precipitated with CHIP only when cultured without the addition of a ligand”.

And the “degradation of ERα by CHIP” value (ERα)?
The value was “block degradation of ERα by CHIP”.

B1: CHIP (carboxyl-terminus of Hsc70 interacting protein) (protein)
chain: MKGKEEKEGGARLGAGGGSPEKSPSAQELKEQGNRLFVGRKYPEAAACYGRAITRNPLVAVYYTNRALCYLKMQQHEQALADCRRALELDGQSVKAHFFLGQCQLEMESYDEAIANLQRAYSLAKEQRLNFGDDIPSALRIAKKKRWNSIEERRIHQESELHSYLSRLIAAERERELEECQRNHEGDEDDSHVRAQQACIEAKHDKYMADMDELFSQVDEKRKKRDIPDYLCGKISFELMREPCITPSGITYDRKDIEEHLQRVGHFDPVTGSPLTQEQFIPNLAMKEVIDAFISENGWVEDY
With B1 as the molecule, how does the “amount of degradation of ERαΔAD measured by Western blotting” value (ERαΔAD, P03372) read?
The value was “both ERαΔAD and ERα were strongly degraded when estrogen was not added (see FIG. 7, lane 3). This degradation increased when the expressed amount of CHIP was increased”.

And the “amount of degradation of ERα measured by Western blotting” value [3]?
Its value is “both ERαΔAD and ERα were strongly degraded when estrogen was not added (see FIG. 7, lane 3). This degradation increased when the expressed amount of CHIP was increased”.
